Tests used:
Type in all cases: in vivo
Scirpus juncoides = experiment: Test Example 2: herbicidal activity, application during weed generation in submerged conditions (symbol B); conditions: Table 23; application herbicide amount 320 g/ha; grade 0-5 by criteria of Test Example 1
Method in brief: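 Flooded-soil post-emergence test: emulsion of compound, water-diluted to target rate, applied to paddy water surface at 1–2 leaf stage of mixed-sown weeds (alluvial soil, 4 cm water, 25–30° C. greenhouse); visual rating 3 weeks after application.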

Leptochloa chinensis = experiment: Test Example 3: herbicidal effect by foliage application, Wagner pot (symbol D); conditions: application herbicide amount 320 g/ha
Method in brief: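 Rating at 3 weeks post-spray, by defined criteria. Treatment: emulsion diluted with water to a predetermined amount, applied evenly to foliage of 14-day-old plants raised in alluvial soil flooded 0.1–0.5 cm deep at 25–30 °C, rice co-sown.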

[1] = test system: directly sowed rice plant; experiment: Test Example 3: effect on crop by foliage application, Wagner pot (symbol b); conditions: application herbicide amount 320 g/ha
Method in brief: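 Plants are raised from seed in flooded paddy conditions: water stands 0.1–0.5 cm over alluvial soil, and the pot is kept in a greenhouse at 25–30 °C. Species sown are barnyardgrass (E. crus-galli var. crus-galli), Leptochloa chinensis, Cyperus difformis and rice.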

Digitaria ciliaris = experiment: Test Example 4: herbicidal effect by soil treatment (symbol F); conditions: application herbicide amount 320 g/ha
Method in brief: (§1)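 Seeds were sown in sterilized diluvial soil, covered with about 1.5 cm of soil, and the soil surface was sprayed with a water-diluted emulsion of the compound at a predetermined rate. Plants grew in a greenhouse at 25° C. to 30° C.; effects were scored visually 3 weeks after application.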

Avena fatua [2] = experiment: Test Example 4: herbicidal effect by soil treatment (symbol I); conditions: application herbicide amount 320 g/ha
Method in brief: as §1

Abutilon theophrasti [3] = experiment: Test Example 4: herbicidal effect by soil treatment (symbol M); conditions: application herbicide amount 320 g/ha
Method in brief: as §1

corn = experiment: Test Example 4: effect on crop by soil treatment (symbol c); conditions: application herbicide amount 320 g/ha
Method in brief: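 Grown at 25° C. to 30° C. in a greenhouse, the crops came from seed sown spot-wise in sterilized diluvial soil under roughly 1.5 cm of covering soil.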

beet = experiment: Test Example 4: effect on crop by soil treatment (symbol f); conditions: application herbicide amount 320 g/ha
Method in brief: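 Greenhouse culture at 25° C. to 30° C. followed sowing of seed in spots on sterilized diluvial soil with a soil cover close to 1.5 cm thick.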

Avena fatua [4] = experiment: Test Example 5: herbicidal effect by foliage application, plastic box (symbol I); conditions: 320 g/ha, 3 weeks after application
Method in brief: (§2)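 Effect is rated 3 weeks after a foliar spray of water-diluted emulsion concentrate at a predetermined herbicide amount. Plants had grown 14 days in a 25° C. to 30° C. greenhouse from seed in sterilized diluvial soil.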

Lolium multiflorum Lam. = experiment: Test Example 5: herbicidal effect by foliage application, plastic box (symbol K); conditions: 320 g/ha, 3 weeks after application
Method in brief: as §2

Abutilon theophrasti [5] = experiment: Test Example 5: herbicidal effect by foliage application, plastic box (symbol M); conditions: 320 g/ha, 3 weeks after application
Method in brief: as §2

wheat = experiment: Test Example 5: effect on crop by foliage application, plastic box (symbol e); conditions: 320 g/ha, 3 weeks after application
Method in brief: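 Diluvial soil, sterilized and boxed (21 × 13 × 7 cm), received spot-sown seed covered by about 1.5 cm soil; plants were then greenhouse-grown at 25–30° C.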

Row | SMILES | Herbicidal effect grade, B: Scirpus juncoides (Scirpus juncoides) | herbicidal effect on D (Leptochloa chinensis), grade 0-5 (Leptochloa chinensis) | effect on crop b (directly sowed rice plant), grade 0-5 [1] | F (Digitaria ciliaris) herbicidal effect grade (Digitaria ciliaris) | I (Avena fatua) herbicidal effect grade (Avena fatua [2]) | M (Abutilon theophrasti) herbicidal effect grade (Abutilon theophrasti [3]) | c (corn) effect on crop grade (corn) | f (beet) effect on crop grade (beet) | I: Avena fatua, herbicidal effect grade (Avena fatua [4]) | K: Lolium multiflorum Lam., herbicidal effect grade (Lolium multiflorum Lam.) | M: Abutilon theophrasti, herbicidal effect grade (Abutilon theophrasti [5]) | e: wheat, effect on crop grade (wheat)
1 | CC(CC1CC(O)=C(c2c(C)cc(C)cc2C)C1=O)=NOCC1CC1 (stereo not drawn) [1-024] | 5 (Herbicidal ratio of 90% or more (almost completely withered)) | 5 (Herbicidal ratio of 90% or more (almost completely withered)) | 5 (Herbicidal ratio of 90% or more (almost completely withered)) | 5 (Herbicidal ratio of 90% or more (almost completely withered)) | 4 (Herbicidal ratio of 70% or higher and lower than 90%) | 3 (Herbicidal ratio of 40% or higher and lower than 70%) | 1 (Herbicidal ratio of 5% or higher and lower than 20%) | 0 (Herbicidal ratio of 5% or lower (almost no effect)) | 5 (Herbicidal ratio of 90% or more (almost completely withered)) | 5 (Herbicidal ratio of 90% or more (almost completely withered)) | 1 (Herbicidal ratio of 5% or higher and lower than 20%) | 5 (Herbicidal ratio of 90% or more (almost completely withered))
2 | CON=C(C)CC1CC(OC(=O)C(C)(C)F)=C(c2c(C)cc(C)cc2C)C1=O (stereo not drawn) [1-039] | 5 (Herbicidal ratio of 90% or more (almost completely withered)) | 5 (Herbicidal ratio of 90% or more (almost completely withered)) | 5 (Herbicidal ratio of 90% or more (almost completely withered)) | 5 (Herbicidal ratio of 90% or more (almost completely withered)) | 1 (Herbicidal ratio of 5% or higher and lower than 20%) | 5 (Herbicidal ratio of 90% or more (almost completely withered)) | 4 (Herbicidal ratio of 70% or higher and lower than 90%) | 3 (Herbicidal ratio of 40% or higher and lower than 70%) | 5 (Herbicidal ratio of 90% or more (almost completely withered)) | 5 (Herbicidal ratio of 90% or more (almost completely withered)) | 4 (Herbicidal ratio of 70% or higher and lower than 90%) | 5 (Herbicidal ratio of 90% or more (almost completely withered))
3 | CC(CC1CC(O)=C(c2c(C)cc(C)cc2C)C1=O)=NOCC(F)(F)F (stereo not drawn) [1-028] | 4 (Herbicidal ratio of 70% or higher and lower than 90%) | 5 (Herbicidal ratio of 90% or more (almost completely withered)) | 5 (Herbicidal ratio of 90% or more (almost completely withered)) | 5 (Herbicidal ratio of 90% or more (almost completely withered)) | 4 (Herbicidal ratio of 70% or higher and lower than 90%) | 3 (Herbicidal ratio of 40% or higher and lower than 70%) | 0 (Herbicidal ratio of 5% or lower (almost no effect)) | 0 (Herbicidal ratio of 5% or lower (almost no effect)) | 4 (Herbicidal ratio of 70% or higher and lower than 90%) | 5 (Herbicidal ratio of 90% or more (almost completely withered)) | 3 (Herbicidal ratio of 40% or higher and lower than 70%) | 3 (Herbicidal ratio of 40% or higher and lower than 70%)
4 | CON=C(C)CC1CC(OC(=O)C(C)(C)OC(C)=O)=C(c2c(C)cc(C)cc2C)C1=O (stereo not drawn) [1-034] | 3 (Herbicidal ratio of 40% or higher and lower than 70%) | 5 (Herbicidal ratio of 90% or more (almost completely withered)) | 5 (Herbicidal ratio of 90% or more (almost completely withered)) | 5 (Herbicidal ratio of 90% or more (almost completely withered)) | 5 (Herbicidal ratio of 90% or more (almost completely withered)) | 5 (Herbicidal ratio of 90% or more (almost completely withered)) | 4 (Herbicidal ratio of 70% or higher and lower than 90%) | 4 (Herbicidal ratio of 70% or higher and lower than 90%) | 5 (Herbicidal ratio of 90% or more (almost completely withered)) | 5 (Herbicidal ratio of 90% or more (almost completely withered)) | 4 (Herbicidal ratio of 70% or higher and lower than 90%) | 5 (Herbicidal ratio of 90% or more (almost completely withered))
5 | CON=C(CC1CC(O)=C(c2c(C)cc(C)cc2C)C1=O)C1CC1 (stereo not drawn) [1-046] | 5 (Herbicidal ratio of 90% or more (almost completely withered)) | 5 (Herbicidal ratio of 90% or more (almost completely withered)) | 5 (Herbicidal ratio of 90% or more (almost completely withered)) | 5 (Herbicidal ratio of 90% or more (almost completely withered)) | 5 (Herbicidal ratio of 90% or more (almost completely withered)) | 4 (Herbicidal ratio of 70% or higher and lower than 90%) | 4 (Herbicidal ratio of 70% or higher and lower than 90%) | 0 (Herbicidal ratio of 5% or lower (almost no effect)) | 5 (Herbicidal ratio of 90% or more (almost completely withered)) | 5 (Herbicidal ratio of 90% or more (almost completely withered)) | 3 (Herbicidal ratio of 40% or higher and lower than 70%) | 4 (Herbicidal ratio of 70% or higher and lower than 90%)
6 | CON=C(C)C(C)C1CC(O)=C(c2c(C)cc(C)cc2C)C1=O (stereo not drawn) [1-032] | 4 (Herbicidal ratio of 70% or higher and lower than 90%) | 5 (Herbicidal ratio of 90% or more (almost completely withered)) | 5 (Herbicidal ratio of 90% or more (almost completely withered)) | 5 (Herbicidal ratio of 90% or more (almost completely withered)) | 5 (Herbicidal ratio of 90% or more (almost completely withered)) | 4 (Herbicidal ratio of 70% or higher and lower than 90%) | 4 (Herbicidal ratio of 70% or higher and lower than 90%) | 4 (Herbicidal ratio of 70% or higher and lower than 90%) | 5 (Herbicidal ratio of 90% or more (almost completely withered)) | 5 (Herbicidal ratio of 90% or more (almost completely withered)) | 4 (Herbicidal ratio of 70% or higher and lower than 90%) | 5 (Herbicidal ratio of 90% or more (almost completely withered))
7 | COCC(CC1CC(O)=C(c2c(C)cc(C)cc2C)C1=O)=NOC (stereo not drawn) [1-040] | 0 (Herbicidal ratio of 5% or lower (almost no effect)) | 4 (Herbicidal ratio of 70% or higher and lower than 90%) | 5 (Herbicidal ratio of 90% or more (almost completely withered)) | 4 (Herbicidal ratio of 70% or higher and lower than 90%) | 3 (Herbicidal ratio of 40% or higher and lower than 70%) | 0 (Herbicidal ratio of 5% or lower (almost no effect)) | 0 (Herbicidal ratio of 5% or lower (almost no effect)) | 0 (Herbicidal ratio of 5% or lower (almost no effect)) | 4 (Herbicidal ratio of 70% or higher and lower than 90%) | 5 (Herbicidal ratio of 90% or more (almost completely withered)) | 1 (Herbicidal ratio of 5% or higher and lower than 20%) | 0 (Herbicidal ratio of 5% or lower (almost no effect))
